Reference: patent publication US10736968B2, “Cellular signalling inhibitors, their formulations and methods thereof” (INVICTUS ONCOLOGY PVT. LTD., priority 2016, dated 2020)

System: 4T1 breast cancer
Experiment: 4T1 breast cancer model (tumor growth, lung metastatic nodules, survival)
Format: in vivo, Balb/c mice
Conditions: for number of metastatic nodules in lungs: lungs harvested on day 12
Excerpt: FIG. 7. Effect of BLN101 on breast tumor growth inhibition. To validate the therapeutic efficacy of BLN101 (as AK750 formulation), we randomly sorted mice bearing 4T1 breast cancer into four groups and treated each group with one of the following: blank vehicle (control); AK750; an antiCSF1 antibody, and BLZ945. Treatment was strated when the tumors reached −75 mm^3 in volume. The day of first injection is considered Day 0). Vehicle-treated animals formed large tumors by Day 12, and consequently were killed. The animals in the other groups were also killed at the same time point to evaluate the effect of the treatments on tumor pathology. […] (b) Changes in body weight were within the acceptable limits.
Later, macrophages are isolated from the tumors and analyzed the cells for expression of markers CD11b+CD206+, CD11b+MHC-II+, CD11b+CD86+ and CD11b+CD80+ on the cells using flow cytometry. […] The tumor-bearing animals are injected with three doses of either Vehicle (for control group), 45 mg/kg of free BLZ-945, 45 mg/kg of BLN101 (in a AK750 formulation), or 25 mg/kg of CSF-1 neutralizing antibody, on day 0, day 4 and day 8. First day of treatment was considered as Day 0. […] Number of metastatic nodules present in the lungs is also quantified. Lungs were harvested from the mice on day 12 following the above treatment, washed with cold PBS followed by which the number of metastatic nodules were counted. […] Later, macrophages are isolated from the tumors and analyzed the cells for expression of markers CD11b+CD206+, CD11b+MHC-II+, CD11b+CD86+ on the cells using flow cytometry. […] SIRPα is a ‘eat-me-not’ signaling, which cancer cells engage with a CD47 ligand, and prevents phagocytosis of the cancer cells. The antibody that inhibits SIRPα was conjugated to the PEG chains on the surface of the AK750 supramolecular nanoparticles. A non-specific IgG was used as controls. […] Furthermore, melanoma-bearing mice is treated with a single dose of SIRPα antibody, AK750 or the SIRPα-AK750. […]

Row | SMILES | number of metastatic nodules in lungs | tumor growth / progression (45 mg/kg on day 0, day 4 and day 8)
1 | CNC(=O)c1cc(Oc2ccc3nc(NC4CCCC[C@H]4OC(=O)CCC(=O)O[C@H]4CC[C@@]5(C)C(=CC[C@H]6[C@@H]7CC[C@H](C(C)CCCC(C)C)[C@@]7(C)CC[C@@H]65)C4)sc3c2)ccn1 (stereo in doubt) [BLN101] | complete inhibition of formation of metastatic nodules | 
2 | CNC(=O)c1cc(Oc2ccc3nc(N[C@@H]4CCCC[C@H]4O)sc3c2)ccn1 [BLZ-945] | reduction as compared to CSF-1 neutralizing antibody and the vehicle control | decreased tumor growth compared with vehicle-treated animals
